Reference: US8785488B2 (Exelixis Patent Company LLC, priority 2009, dated 2014)

Each compound was assayed against T1, human TGR5 (h-TGR5) (Homo sapiens, UniProt Q8TDU6) (assay: TGR5/CRE-Luciferiase Assay (HEK 293 hTGR5/CRE-Luc cells)). Settings: h-TGR5 CRE-Luc EC50, Table 1; read-out: CRE-Luc (EC50).
T1 construct: expressed in transfected cells
T1 sequence (Q8TDU6 1-330): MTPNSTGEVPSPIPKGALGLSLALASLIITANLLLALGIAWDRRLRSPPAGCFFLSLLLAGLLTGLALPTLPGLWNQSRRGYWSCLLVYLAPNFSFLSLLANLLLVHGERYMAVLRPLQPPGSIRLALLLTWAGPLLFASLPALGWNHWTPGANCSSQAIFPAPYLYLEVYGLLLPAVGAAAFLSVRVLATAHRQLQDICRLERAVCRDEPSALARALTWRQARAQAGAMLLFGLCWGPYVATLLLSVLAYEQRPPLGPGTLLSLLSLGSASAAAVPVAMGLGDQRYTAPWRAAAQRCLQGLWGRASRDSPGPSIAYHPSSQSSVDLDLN
Type: cell-based
How it was run: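 HEK293 cells stably carrying hTGR5 and a CRE-luciferase reporter were exposed to serially diluted compounds (diluted in DMEM with 5% DMSO) for 6 h. Cells were then lysed in luciferase buffer, luminescence was read, and EC50 values were derived from dose-response curves.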

With `CC(Oc1ccc(Cl)c(Cl)c1)c1ncc(C(C)(C)c2ccc(Cl)c(Cl)c2)n1-c1ccc(F)cc1` (stereo not shown) [5-[1-(3,4-dichlorophenyl)-1-methylethyl]-2-{1-[(3,4-dichlorophenyl)oxy]ethyl}-1-(4-fluorophenyl)-1H-imidazole] as the compound, how does the EC50 read?
The EC50 was 1000 to 10000 nM.

With `CC(C)(c1ccc(Cl)c(Cl)c1)c1cnc(S(=O)(=O)Cc2ccc(Cl)cc2Cl)n1-c1ccc(F)cc1` [5-[1-(3,4-dichlorophenyl)-1-methylethyl]-2-{[(2,4-dichlorophenyl)methyl]sulfonyl}-1-(4-fluorophenyl)-1H-imidazole] as the compound, how does the EC50 read?
Its EC50 is 1000 to 10000 nM.

`CC(C)(c1ccc(Cl)c(Cl)c1)c1cnc(S(=O)(=O)Cc2cc(Cl)ccc2Cl)n1-c1ccc(F)cc1` [5-[1-(3,4-dichlorophenyl)-1-methylethyl]-2-{[(2,5-dichlorophenyl)methyl]sulfonyl}-1-(4-fluorophenyl)-1H-imidazole] was tested. Which EC50 did it give?
Its EC50 is 100 to 1000 nM.

With `CC(C)(c1ccc(Cl)c(Cl)c1)c1cnc(S(=O)(=O)Cc2c(Cl)cccc2Cl)n1-c1ccc(F)cc1` [5-[1-(3,4-dichlorophenyl)-1-methylethyl]-2-{[(2,6-dichlorophenyl)methyl]sulfonyl}-1-(4-fluorophenyl)-1H-imidazole] as the compound, how does the EC50 read?
Its EC50 is 100 to 1000 nM.

How did the EC50 turn out when `CC(C)(c1ccc(Cl)c(Cl)c1)c1cnc(SCc2c(Cl)cccc2Cl)n1-c1ccc(F)cc1` [5-[1-(3,4-dichlorophenyl)-1-methylethyl]-2-{[(2,6-dichlorophenyl)methyl]thio}-1-(4-fluorophenyl)-1H-imidazole] was run?
Its EC50 is 100 to 1000 nM.

Which EC50 does the source give for `CC(C)(c1ccc(Cl)c(Cl)c1)c1cnc(S(=O)(=O)Cc2ccc(Cl)c(Cl)c2)n1-c1ccc(F)cc1` [5-[1-(3,4-dichlorophenyl)-1-methylethyl]-2-{[(3,4-dichlorophenyl)methyl]sulfonyl}-1-(4-fluorophenyl)-1H-imidazole] here?
The EC50 was 1000 to 10000 nM.

How did the EC50 turn out when `CC(C)(c1ccc(Cl)c(Cl)c1)c1cnc(CSc2ccc(Cl)c(Cl)c2)n1-c1ccc(F)cc1` [5-[1-(3,4-dichlorophenyl)-1-methylethyl]-2-{[(3,4-dichlorophenyl)thio]methyl}-1-(4-fluorophenyl)-1H-imidazole] was run?
The EC50 was 100 to 1000 nM.

Which EC50 does the source give for `CC(C)(c1ccc(Cl)c(Cl)c1)c1cnc(S(=O)(=O)Cc2ccc(F)c(F)c2)n1-c1ccc(F)cc1` [5-[1-(3,4-dichlorophenyl)-1-methylethyl]-2-{[(3,4-difluorophenyl)methyl]sulfonyl}-1-(4-fluorophenyl)-1H-imidazole] here?
The EC50 was 100 to 1000 nM.

`CC(C)(c1ccc(Cl)c(F)c1)c1cnc(SCc2c(F)cccc2Cl)n1-c1ccc(F)cc1` [5-[1-(4-chloro-3-fluorophenyl)-1-methylethyl]-2-{[(2-chloro-6-fluorophenyl)methyl]thio}-1-(4-fluorophenyl)-1H-imidazole] was tested. Which EC50 did it give?
Its EC50 is less than 100 nM.

`COc1ccc(-c2cnc(SCc3ccc(F)cc3Cl)n2-c2ccc(F)cc2)cc1OC` [5-[3,4-bis(methyloxy)phenyl]-2-{[(2-chloro-4-fluorophenyl)methyl]thio}-1-(4-fluorophenyl)-1H-imidazole] was tested. Which EC50 did it give?
The EC50 was 1000 to 10000 nM.

With `COc1ccc(-c2cnc(SCc3c(F)cccc3Cl)n2-c2ccc(F)cc2)cc1OC` [5-[3,4-bis(methyloxy)phenyl]-2-{[(2-chloro-6-fluorophenyl)methyl]thio}-1-(4-fluorophenyl)-1H-imidazole] as the compound, how does the EC50 read?
Its EC50 is 1000 to 10000 nM.

With `COc1ccc(C(C)(C)c2cnc(SCc3c(F)cc(-c4nnn[nH]4)cc3F)n2-c2ccc(F)cc2)cc1Cl` [5-[4-({[5-{1-[3-chloro-4-(methyloxy)phenyl]-1-methylethyl}-1-(4-fluorophenyl)-1H-imidazol-2-yl]thio}methyl)-3,5-difluorophenyl]-1H-tetrazole] as the compound, how does the EC50 read?
The EC50 was less than 100 nM.

Which EC50 does the source give for `CC(C)(c1ccc(Cl)c(Cl)c1)c1cnc(SCc2ccc(OCCCO)c(C#N)c2)n1-c1ccc(F)cc1` [5-[({5-[1-(3,4-dichlorophenyl)-1-methylethyl]-1-(4-fluorophenyl)-1H-imidazol-2-yl}thio)methyl]-2-[(3-hydroxypropyl)oxy]benzonitrile] here?
Its EC50 is 100 to 1000 nM.

How did the EC50 turn out when `CC(C)(c1ccc(Cl)c(Cl)c1)c1cnc(SCc2ccc(F)c(C(=O)NCC(F)(F)F)c2)n1-c1ccc(F)cc1` [5-[({5-[1-(3,4-dichlorophenyl)-1-methylethyl]-1-(4-fluorophenyl)-1H-imidazol-2-yl}thio)methyl]-2-fluoro-N-(2,2,2-trifluoroethyl)benzamide] was run?
Its EC50 is 100 to 1000 nM.

`CC(C)(O)CNC(=O)c1cc(CSc2ncc(C(C)(C)c3ccc(Cl)c(Cl)c3)n2-c2ccc(F)cc2)ccc1F` [5-[({5-[1-(3,4-dichlorophenyl)-1-methylethyl]-1-(4-fluorophenyl)-1H-imidazol-2-yl}thio)methyl]-2-fluoro-N-(2-hydroxy-2-methylpropyl)benzamide] was tested. Which EC50 did it give?
The EC50 was 100 to 1000 nM.

How did the EC50 turn out when `CC(C)(c1ccc(Cl)c(Cl)c1)c1cnc(SCc2ccc(F)c(C(=O)NCCN3CCOCC3)c2)n1-c1ccc(F)cc1` [5-[({5-[1-(3,4-dichlorophenyl)-1-methylethyl]-1-(4-fluorophenyl)-1H-imidazol-2-yl}thio)methyl]-2-fluoro-N-(2-morpholin-4-ylethyl)benzamide] was run?
The EC50 was 100 to 1000 nM.

How did the EC50 turn out when `CC(C)(c1ccc(Cl)c(Cl)c1)c1cnc(SCc2ccc(F)c(C(=O)NCCc3c[nH]cn3)c2)n1-c1ccc(F)cc1` [5-[({5-[1-(3,4-dichlorophenyl)-1-methylethyl]-1-(4-fluorophenyl)-1H-imidazol-2-yl}thio)methyl]-2-fluoro-N-[2-(1H-imidazol-4-yl)ethyl]benzamide] was run?
The EC50 was 100 to 1000 nM.

`COCCNC(=O)c1cc(CSc2ncc(C(C)(C)c3ccc(Cl)c(Cl)c3)n2-c2ccc(F)cc2)ccc1F` [5-[({5-[1-(3,4-dichlorophenyl)-1-methylethyl]-1-(4-fluorophenyl)-1H-imidazol-2-yl}thio)methyl]-2-fluoro-N-[2-(methyloxy)ethyl]benzamide] was tested. Which EC50 did it give?
Its EC50 is 100 to 1000 nM.

`CC(C)(c1ccc(Cl)c(Cl)c1)c1cnc(SCc2ccc(F)c(C#N)c2)n1-c1ccc(F)cc1` [5-[({5-[1-(3,4-dichlorophenyl)-1-methylethyl]-1-(4-fluorophenyl)-1H-imidazol-2-yl}thio)methyl]-2-fluorobenzonitrile] was tested. Which EC50 did it give?
The EC50 was 100 to 1000 nM.

How did the EC50 turn out when `CCN(CC)CCOc1ccc(CSc2ncc(C(C)(C)c3ccc(Cl)c(Cl)c3)n2-c2ccc(F)cc2)cc1S(N)(=O)=O` [5-[({5-[1-(3,4-dichlorophenyl)-1-methylethyl]-1-(4-fluorophenyl)-1H-imidazol-2-yl}thio)methyl]-2-{[2-(diethylamino)ethyl]oxy}benzenesulfonamide] was run?
The EC50 was 100 to 1000 nM.

`CC(C)(c1ccc(F)c(F)c1)c1cnc(SCc2ccc(F)c(C(=O)O)c2)n1-c1ccc(F)cc1` [5-[({5-[1-(3,4-difluorophenyl)-1-methylethyl]-1-(4-fluorophenyl)-1H-imidazol-2-yl}thio)methyl]-2-fluorobenzoic acid] was tested. Which EC50 did it give?
Its EC50 is 100 to 1000 nM.

For `CC(C)(c1ccc(Cl)c(Cl)c1)c1cnc(COc2ccc(Cl)cn2)n1-c1ccc(F)cc1` [5-chloro-2-[({5-[1-(3,4-dichlorophenyl)-1-methylethyl]-1-(4-fluorophenyl)-1H-imidazol-2-yl}methyl)oxy]pyridine], which EC50 is on record?
Its EC50 is 100 to 1000 nM.

Which EC50 does the source give for `CC(C)(c1ccc(Cl)c(Cl)c1)c1cnc(SCc2ccc(Cl)cc2C(=O)O)n1-c1ccc(F)cc1` [5-chloro-2-[({5-[1-(3,4-dichlorophenyl)-1-methylethyl]-1-(4-fluorophenyl)-1H-imidazol-2-yl}thio)methyl]benzoic acid] here?
The EC50 was 100 to 1000 nM.

With `COc1ccc(C(C)(C)c2cnc(C(=O)N3CCCC3)n2-c2ccc(F)cc2)cc1OC` [5-{1-[3,4-bis(methyloxy)phenyl]-1-methylethyl}-1-(4-fluorophenyl)-2-(pyrrolidin-1-ylcarbonyl)-1H-imidazole] as the compound, how does the EC50 read?
The EC50 was 1000 to 10000 nM.

With `COc1ccc(C(C)(C)c2cnc(S(=O)(=O)CCc3ccc(F)cc3Cl)n2-c2ccc(F)cc2)cc1OC` [5-{1-[3,4-bis(methyloxy)phenyl]-1-methylethyl}-2-{[2-(2-chloro-4-fluorophenyl)ethyl]sulfonyl}-1-(4-fluorophenyl)-1H-imidazole] as the compound, how does the EC50 read?
Its EC50 is less than 100 nM.

With `COc1ccc(C(C)(C)c2cnc(S(=O)(=O)CCc3ccc(Cl)c(Cl)c3)n2-c2ccc(F)cc2)cc1OC` [5-{1-[3,4-bis(methyloxy)phenyl]-1-methylethyl}-2-{[2-(3,4-dichlorophenyl)ethyl]sulfonyl}-1-(4-fluorophenyl)-1H-imidazole] as the compound, how does the EC50 read?
Its EC50 is less than 100 nM.

How did the EC50 turn out when `COc1ccc(C(C)(C)c2cnc(S(=O)(=O)CCc3ccc(F)c(Cl)c3)n2-c2ccc(F)cc2)cc1OC` [5-{1-[3,4-bis(methyloxy)phenyl]-1-methylethyl}-2-{[2-(3-chloro-4-fluorophenyl)ethyl]sulfonyl}-1-(4-fluorophenyl)-1H-imidazole] was run?
The EC50 was less than 100 nM.

Which EC50 does the source give for `COc1ccc(C(C)(C)c2cnc(SCc3ccc(Cl)cc3Cl)n2-c2ccc(F)cc2)cc1OC` [5-{1-[3,4-bis(methyloxy)phenyl]-1-methylethyl}-2-{[(2,4-dichlorophenyl)methyl]thio}-1-(4-fluorophenyl)-1H-imidazole] here?
The EC50 was less than 100 nM.

Which EC50 does the source give for `COc1ccc(C(C)(C)c2cnc(S(=O)(=O)Cc3c(F)cccc3Cl)n2-c2ccc(F)cc2)cc1OC` [5-{1-[3,4-bis(methyloxy)phenyl]-1-methylethyl}-2-{[(2-chloro-6-fluorophenyl)methyl]sulfonyl}-1-(4-fluorophenyl)-1H-imidazole] here?
The EC50 was less than 100 nM.

How did the EC50 turn out when `COc1ccc(C(C)(C)c2c(-c3ccc(F)cc3)nc(SCc3c(F)cccc3Cl)n2C)cc1OC` [5-{1-[3,4-bis(methyloxy)phenyl]-1-methylethyl}-2-{[(2-chloro-6-fluorophenyl)methyl]thio}-4-(4-fluorophenyl)-1-methyl-1H-imidazole] was run?
The EC50 was 1000 to 10000 nM.

Which EC50 does the source give for `COc1ccc(C(C)(C)c2cnc(SCc3ccc(Cl)c(Cl)c3)n2-c2ccc(F)cc2)cc1OC` [5-{1-[3,4-bis(methyloxy)phenyl]-1-methylethyl}-2-{[(3,4-dichlorophenyl)methyl]thio}-1-(4-fluorophenyl)-1H-imidazole] here?
The EC50 was less than 100 nM.
